What was measured:
[1] = test system: mouse T cell transfer model; test: T cell transfer model (mice); format: in vivo; conditions: 30 mg/kg p.o. b.i.d.
Text: DynaMag (Cat #12321D and 123203D) were obtained from Life Technologies Invitrogen (California, USA); DynabeadsFlowComp Mouse CD4+CD25-treg cells (Cat #11463D) were obtained from Life Technologies Invitrogen (California, USA), Fetal Bovine Serum (GIBCO), Cat #10270-106; RPMI (Gibco) Cat #32404-014 and D-PBS 1× without CaCl2 without MgCl2 (GIBCO), Cat #14190-086 were obtained ThermoFisher Scientific (Massachusetts, USA). Red Blood Cell (RBC) lysis buffer 10×, Cat #BLE420301 obtained from Ozyme (Montigny-le-Bretonneux, France). Cell strainer (70 μm grid), Cat #352350, obtained from Corning (New York, USA). […]
Fourteen days after cell injection, 100 μL of blood was sampled on each mouse under anesthesic conditions in order to determine CD4 level. […] Disease activity index was determined twice a week. Four to six weeks after the start of treatment, mice were sacrificed, blood was sampled and the complete colon was removed and rinsed with sterile PBS, it was measured and weighed in order to determine colon weight/length ratio. […]
There were 12 mice per group. The results were expressed as mean±SEM and statistical analysis was performed using non parametric test Kruskal-Wallis with Dunn's Multiple comparison test versus vehicle groups. […]

mouse CIA model = test: Collagen induced arthritis (CIA) model; format: in vivo; set-up: key: per paw 0 = none to 4 = maximal; sum of 4 paws, max 16
Experimental: Completed Freund's adjuvant (CFA) and incomplete Freund's adjuvant (IFA) were purchased from Difco. Bovine collagen type II (CII), lipopolysaccharide (LPS), and Enbrel® (etanercept) were obtained from Chondrex (L'Isle d'Abeau, France); Sigma (P4252, L'Isle d'Abeau, France), Whyet (25 mg injectable syringe, France), respectively. All other reagents used were of reagent grade and all solvents were of analytical grade.
DBA1/J mice (male, 7-8 weeks old) were obtained from Charles River Laboratories (Écully, France). Mice were kept on a 12 h light/dark cycle. Temperature was maintained at 22° C., and food and water were provided ad libitum.
One day before the experiment, CII solution (2 mg/mL) was prepared with 0.05 M acetic acid and stored at 4° C. Just before the immunization, equal volumes of adjuvant […] and CII were mixed by a homogenizer in a pre-cooled glass bottle in an ice water bath. Extra adjuvant and prolonged homogenization may be required if an emulsion is not formed. 0.2 mL of the emulsion was injected intradermally at the base of the tail of each mouse on day 1, a second booster intradermal injection (CII solution at 2 mg/mL in […]) was performed on […]. This immunization method was modified from published methods (Jou et al. 2005; Sims et al. 2004).
The therapeutic effects of the compounds were tested in the mouse CIA model. Mice were randomly divided into equal groups and each group contained 10 mice. All mice were immunized on day 1 and boosted on day 21. The negative control group was treated with vehicle (MC 0.5%) and the positive control group with Enbrel® (10 mg/kg, 3× week., sc). A compound of interest was typically tested at 3 doses per os (p.o.). At day 32, randomization between groups was performed with respect with clinical score and animals were therapeutically treated regarding their group until day 47. Body weight and clinical score, were recorded at least twice a week.
Arthritis is scored according to the method of Khachigian 2006, Lin et al 2007 and Nishida et al. 2004 (Khachigian 2006; Lin et al. 2007; Nishida et al. 2004). The swelling of each of the four paws is ranked with the arthritic score as follows: 0-no symptoms; 1-mild, but definite redness and swelling of one type of joint such as the ankle or wrist, or apparent redness and swelling limited to individual digits, regardless of the number of affected digits; 2-moderate redness and swelling of two or more types of joints; 3-severe redness and swelling of the entire paw including digits; 4-maximally inflamed limb with involvement of multiple joints (maximum cumulative clinical arthritis score 16 per animal) (Nishida et al. 2004).

With COc1cc(-c2cnc3cc(OCCN4CCOCC4)ccn23)cc2c1C(=O)N(CC(F)(F)F)CC2 [Cpd 88, 8-methoxy-6-[7-(2-morpholinoethoxy)imidazo [1,2-a]pyridin-3-yl]-2-(2,2,2-trifluoroethyl)-3,4-dihydroisoquinolin-1-one] the “AUC of DAI vs. vehicle group” value [1] was “statistical significant reduction of AUC of DAI”, the CIA clinical score (mouse CIA model; 10 mg/kg b.i.d. p.o., day 32) was 2.7 and the CIA clinical score (mouse CIA model; 10 mg/kg b.i.d. p.o., day 33) was 3.1. For the same compound, the CIA clinical score (mouse CIA model; 10 mg/kg b.i.d. p.o., day 35) was 3.6, the CIA clinical score (mouse CIA model; 10 mg/kg b.i.d. p.o., day 36) was 4.1 and the CIA clinical score (mouse CIA model; 10 mg/kg b.i.d. p.o., day 39) was 4.4. The CIA clinical score (mouse CIA model; 10 mg/kg b.i.d. p.o., day 40) was 4.8, the CIA clinical score (mouse CIA model; 10 mg/kg b.i.d. p.o., day 41) was 4.5 and the CIA clinical score (mouse CIA model; 10 mg/kg b.i.d. p.o., day 42) was 4.9. The CIA clinical score (mouse CIA model; 10 mg/kg b.i.d. p.o., day 43) was 5.1, the CIA clinical score (mouse CIA model; 10 mg/kg b.i.d. p.o., day 46) was 8.0 and the CIA clinical score (mouse CIA model; 10 mg/kg b.i.d. p.o., day 47) was 7.9. For the same compound, the CIA clinical score (mouse CIA model; 30 mg/kg b.i.d. p.o., day 32) was 2.7, the CIA clinical score (mouse CIA model; 30 mg/kg b.i.d. p.o., day 33) was 2.7 and the CIA clinical score (mouse CIA model; 30 mg/kg b.i.d. p.o., day 35) was 3.4. The CIA clinical score (mouse CIA model; 30 mg/kg b.i.d. p.o., day 36) was 3.8, the CIA clinical score (mouse CIA model; 30 mg/kg b.i.d. p.o., day 39) was 4.5 and the CIA clinical score (mouse CIA model; 30 mg/kg b.i.d. p.o., day 40) was 4.7. For the same compound, the CIA clinical score (mouse CIA model; 30 mg/kg b.i.d. p.o., day 41) was 4.7, the CIA clinical score (mouse CIA model; 30 mg/kg b.i.d. p.o., day 42) was 5.2 and the CIA clinical score (mouse CIA model; 30 mg/kg b.i.d. p.o., day 43) was 4.6. For the same compound, the CIA clinical score (mouse CIA model; 30 mg/kg b.i.d. p.o., day 46) was 6.1, the CIA clinical score (mouse CIA model; 30 mg/kg b.i.d. p.o., day 47) was 5.4 and the CIA clinical score (mouse CIA model; 60 mg/kg b.i.d. p.o., day 32) was 2.7. It also gave a CIA clinical score (mouse CIA model; 60 mg/kg b.i.d. p.o., day 33) of 2.7, a CIA clinical score (mouse CIA model; 60 mg/kg b.i.d. p.o., day 35) of 3.1 and a CIA clinical score (mouse CIA model; 60 mg/kg b.i.d. p.o., day 36) of 2.8. The CIA clinical score (mouse CIA model; 60 mg/kg b.i.d. p.o., day 39) was 3.3, the CIA clinical score (mouse CIA model; 60 mg/kg b.i.d. p.o., day 40) was 3.0 and the CIA clinical score (mouse CIA model; 60 mg/kg b.i.d. p.o., day 41) was 2.7. It also gave a CIA clinical score (mouse CIA model; 60 mg/kg b.i.d. p.o., day 42) of 2.8, a CIA clinical score (mouse CIA model; 60 mg/kg b.i.d. p.o., day 43) of 2.3 and a CIA clinical score (mouse CIA model; 60 mg/kg b.i.d. p.o., day 46) of 2.8. The CIA clinical score (mouse CIA model; 60 mg/kg b.i.d. p.o., day 47) was 2.5.
